{
  "source": "patent US6447820B1",
  "about": "“Pharmaceutical composition for the prevention and treatment of scar tissue” (priority 2001, dated 2002)",
  "origin": "cited, not measured here",
  "key": {"[1]": {"settings": "mice"}, "[2]": {"settings": "mice", "remark": "listed apart in the source"}, "[3]": {"settings": "guinea pigs"}, "[4]": {"settings": "mice", "remark": "listed apart in the source"}, "[5]": {"settings": "mice", "remark": "listed apart in the source"}, "[6]": {"settings": "X-ray irradiated recipient mice"}},
  "data": [
    {"smiles": "CC1(C)O[C@H]2CC(=O)OC[C@]23[C@H]2CC[C@@]4(C)[C@H](c5ccoc5)OC(=O)[C@H]5O[C@]54[C@]2(C)C(=O)C[C@@H]13", "note": "[limonin]", "values": [
      {"measurement": "sleeping time induced by alpha-chloralose-urethane", "setting": "[1]", "result": "shorten"}
    ]},
    {"smiles": "COc1ccc2c(c1O)-c1c(O)c(OC)cc3c1[C@H](C2)[N+](C)(C)CC3", "note": "[magnoflorine]", "values": [
      {"measurement": "local GvH reactions", "setting": "[2]", "result": "suppress"}
    ]},
    {"smiles": "CC1(C)OC(=O)C=C[C@]2(C)[C@H]3CC[C@@]4(C)[C@H](c5ccoc5)OC(=O)[C@H]5O[C@]54[C@]3(C)C(=O)C[C@@H]12", "note": "[obacunone]", "values": [
      {"measurement": "sleeping time induced by alpha-chloralose-urethane", "setting": "[1]", "result": "shorten"}
    ]},
    {"smiles": "COc1cc2c(cc1O)C[C@H]1c3cc(O)c(OC)cc3CC[N@@+]1(C)C2", "note": "[phellodendrine]", "values": [
      {"measurement": "local GvH reactions", "setting": "[2]", "result": "suppress"},
      {"measurement": "local semisyngeneic GvH reactions", "setting": "[2]", "result": "suppressed"},
      {"measurement": "effector phase of tuberculin-induced delayed type hypersensitivity", "setting": "[3]", "result": "did not suppress"},
      {"measurement": "induction phase of tuberculin-induced delayed type hypersensitivity", "setting": "[3]", "result": "suppressed"},
      {"measurement": "antibody production to SRBC", "setting": "[4]", "result": "did not affect"},
      {"measurement": "effector phase of SRBC-induced delayed type hypersensitivity", "setting": "[5]", "result": "did not suppress"},
      {"measurement": "induction phase of SRBC-induced delayed type hypersensitivity", "setting": "[5]", "result": "suppressed"},
      {"measurement": "systemic allogeneic GvH reactions", "setting": "[6]", "result": "suppressed"}
    ]}
  ]
}
